# According to ChEMBL document CHEMBL1132638, “New (sulfonyloxy)piperazinyldibenzazepines as potential atypical antipsychotics: chemistry and pharmacological evaluation” (J Med Chem, 1999):
# Key:
# [1] = target: T1, Adrenergic receptor alpha-1 (Rattus norvegicus, UniProt P15823+P23944+P43140); test: Binding affinity towards alpha-1 adrenergic receptor from rat brain membranes using [3H]prazosin as radioligand
# T1 sequence (P15823 whole entry): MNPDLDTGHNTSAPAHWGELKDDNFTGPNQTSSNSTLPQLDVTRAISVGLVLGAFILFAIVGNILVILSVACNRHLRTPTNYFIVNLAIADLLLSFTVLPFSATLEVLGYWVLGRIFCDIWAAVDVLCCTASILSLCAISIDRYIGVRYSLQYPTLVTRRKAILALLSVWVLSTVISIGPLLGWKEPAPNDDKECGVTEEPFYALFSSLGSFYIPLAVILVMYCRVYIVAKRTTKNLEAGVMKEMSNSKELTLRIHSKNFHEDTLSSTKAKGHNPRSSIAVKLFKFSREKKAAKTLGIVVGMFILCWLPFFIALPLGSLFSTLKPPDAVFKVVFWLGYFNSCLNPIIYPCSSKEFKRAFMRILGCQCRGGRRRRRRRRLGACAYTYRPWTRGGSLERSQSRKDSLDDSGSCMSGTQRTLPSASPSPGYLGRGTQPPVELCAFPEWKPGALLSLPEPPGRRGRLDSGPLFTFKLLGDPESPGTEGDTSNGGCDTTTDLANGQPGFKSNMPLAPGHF
# T1 sequence (P23944 whole entry): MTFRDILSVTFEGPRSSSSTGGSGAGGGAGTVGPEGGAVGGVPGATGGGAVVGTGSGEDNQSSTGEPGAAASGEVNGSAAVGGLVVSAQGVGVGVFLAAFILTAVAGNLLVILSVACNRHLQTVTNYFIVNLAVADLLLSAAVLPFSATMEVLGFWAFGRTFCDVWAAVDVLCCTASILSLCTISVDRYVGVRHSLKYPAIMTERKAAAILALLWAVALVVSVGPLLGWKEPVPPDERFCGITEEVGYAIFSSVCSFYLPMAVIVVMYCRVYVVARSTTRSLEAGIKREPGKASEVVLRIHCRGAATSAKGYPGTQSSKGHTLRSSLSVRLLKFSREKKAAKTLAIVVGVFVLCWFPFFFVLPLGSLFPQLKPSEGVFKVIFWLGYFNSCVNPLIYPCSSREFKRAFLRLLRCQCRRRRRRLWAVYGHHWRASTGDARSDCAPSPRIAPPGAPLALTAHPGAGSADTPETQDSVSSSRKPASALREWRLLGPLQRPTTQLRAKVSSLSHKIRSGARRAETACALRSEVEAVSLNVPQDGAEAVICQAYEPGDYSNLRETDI
# T1 sequence (P43140 whole entry): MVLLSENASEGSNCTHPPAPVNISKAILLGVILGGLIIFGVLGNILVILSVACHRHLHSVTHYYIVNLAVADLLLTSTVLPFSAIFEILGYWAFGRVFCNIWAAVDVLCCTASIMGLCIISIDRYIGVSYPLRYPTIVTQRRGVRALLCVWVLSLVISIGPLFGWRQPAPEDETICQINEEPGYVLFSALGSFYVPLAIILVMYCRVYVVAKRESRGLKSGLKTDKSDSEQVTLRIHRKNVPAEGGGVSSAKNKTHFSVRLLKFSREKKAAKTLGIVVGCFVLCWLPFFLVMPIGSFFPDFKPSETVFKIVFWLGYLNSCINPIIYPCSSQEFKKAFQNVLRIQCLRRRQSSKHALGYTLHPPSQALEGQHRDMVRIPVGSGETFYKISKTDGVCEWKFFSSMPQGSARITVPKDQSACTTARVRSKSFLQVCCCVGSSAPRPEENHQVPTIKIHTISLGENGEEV
# D(1A) dopamine receptor = D(1A) dopamine receptor (Rattus norvegicus, UniProt P18901); test: biochemical
# Chain of D(1A) dopamine receptor (P18901 whole entry): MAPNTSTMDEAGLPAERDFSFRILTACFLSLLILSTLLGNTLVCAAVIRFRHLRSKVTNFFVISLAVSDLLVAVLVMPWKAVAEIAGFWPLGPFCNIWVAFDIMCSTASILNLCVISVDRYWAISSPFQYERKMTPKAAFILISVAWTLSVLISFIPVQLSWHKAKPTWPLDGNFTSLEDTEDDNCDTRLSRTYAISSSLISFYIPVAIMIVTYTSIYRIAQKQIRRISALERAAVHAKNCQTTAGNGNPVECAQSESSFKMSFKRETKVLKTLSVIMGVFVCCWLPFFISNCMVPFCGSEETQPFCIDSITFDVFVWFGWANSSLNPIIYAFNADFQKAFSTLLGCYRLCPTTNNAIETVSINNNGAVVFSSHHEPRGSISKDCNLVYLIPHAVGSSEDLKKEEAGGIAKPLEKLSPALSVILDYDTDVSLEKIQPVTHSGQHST
# Description: Binding affinity towards D1 CNS receptor of rat corpus striatum using [3H]SCH-23390 as radioligand
# [2] = target: T2, 5-hydroxytryptamine receptor 2C (Rattus norvegicus, UniProt P08909)
# T2 sequence (P08909 whole entry): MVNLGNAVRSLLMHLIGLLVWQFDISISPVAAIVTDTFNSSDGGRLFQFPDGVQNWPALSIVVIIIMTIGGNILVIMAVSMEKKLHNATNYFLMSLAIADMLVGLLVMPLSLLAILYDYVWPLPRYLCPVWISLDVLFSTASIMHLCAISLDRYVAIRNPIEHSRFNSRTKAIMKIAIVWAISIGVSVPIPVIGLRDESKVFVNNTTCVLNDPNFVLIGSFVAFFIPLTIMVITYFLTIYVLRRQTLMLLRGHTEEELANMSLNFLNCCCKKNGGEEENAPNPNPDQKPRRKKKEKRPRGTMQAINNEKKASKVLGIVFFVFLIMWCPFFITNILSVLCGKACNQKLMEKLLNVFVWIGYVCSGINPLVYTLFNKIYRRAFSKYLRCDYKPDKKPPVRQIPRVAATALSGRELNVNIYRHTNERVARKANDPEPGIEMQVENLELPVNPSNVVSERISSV
# Description: Binding affinity towards 5-HT2C receptor from rat using [3H]mesulergine as radioligand
# [3] = Partition coefficient (logP); assay type: physicochemical; details: octanol/water
# [4] = target: 5-hydroxytryptamine receptor 2A (Rattus norvegicus, UniProt P14842); test: biochemical
# Chain of 5-hydroxytryptamine receptor 2A (P14842 whole entry): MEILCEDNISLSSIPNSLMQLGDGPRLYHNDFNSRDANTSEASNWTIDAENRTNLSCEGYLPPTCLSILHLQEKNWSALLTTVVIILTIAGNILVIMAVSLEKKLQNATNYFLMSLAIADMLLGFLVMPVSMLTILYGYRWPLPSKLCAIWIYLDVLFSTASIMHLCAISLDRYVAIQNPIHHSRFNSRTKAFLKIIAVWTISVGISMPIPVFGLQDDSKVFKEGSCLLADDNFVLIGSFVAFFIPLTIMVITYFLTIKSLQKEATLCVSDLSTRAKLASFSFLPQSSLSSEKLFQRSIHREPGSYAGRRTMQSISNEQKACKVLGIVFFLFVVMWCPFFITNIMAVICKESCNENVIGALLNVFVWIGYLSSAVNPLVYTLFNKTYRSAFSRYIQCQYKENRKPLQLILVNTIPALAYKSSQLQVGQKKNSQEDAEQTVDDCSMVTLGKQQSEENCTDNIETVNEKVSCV
# Description: Binding affinity towards 5-hydroxytryptamine 2A receptor from rat frontal cortex using [3H]ketanserin as radioligand
# [5] = Delta ED50 value by Subcutaneous administration (ED50 catalepsy-ED50 Climbing); assay type: functional
# D(4) dopamine receptor [6] = target: T3, D(4) dopamine receptor (Homo sapiens, UniProt P21917); test: Binding affinity towards human D4.2 receptor
# T3 sequence (P21917 whole entry): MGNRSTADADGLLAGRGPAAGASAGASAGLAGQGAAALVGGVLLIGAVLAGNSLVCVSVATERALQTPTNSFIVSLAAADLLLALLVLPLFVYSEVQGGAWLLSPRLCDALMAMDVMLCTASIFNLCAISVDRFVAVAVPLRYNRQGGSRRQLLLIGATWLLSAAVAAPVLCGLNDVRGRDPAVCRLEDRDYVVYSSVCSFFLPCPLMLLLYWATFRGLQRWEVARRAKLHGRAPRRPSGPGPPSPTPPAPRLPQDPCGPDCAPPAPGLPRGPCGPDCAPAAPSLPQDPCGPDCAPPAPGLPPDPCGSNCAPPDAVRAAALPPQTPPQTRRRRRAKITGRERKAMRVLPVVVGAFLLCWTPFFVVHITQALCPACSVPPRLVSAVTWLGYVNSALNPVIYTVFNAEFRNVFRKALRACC
# Mus musculus [7] = test: Inhibition of apomorphine induced climbing affects in mice by administering the compound subcutaneously in mice; assay type: functional; details: sc
# D(3) dopamine receptor = D(3) dopamine receptor (Homo sapiens, UniProt P35462)
# Chain of D(3) dopamine receptor (P35462 whole entry): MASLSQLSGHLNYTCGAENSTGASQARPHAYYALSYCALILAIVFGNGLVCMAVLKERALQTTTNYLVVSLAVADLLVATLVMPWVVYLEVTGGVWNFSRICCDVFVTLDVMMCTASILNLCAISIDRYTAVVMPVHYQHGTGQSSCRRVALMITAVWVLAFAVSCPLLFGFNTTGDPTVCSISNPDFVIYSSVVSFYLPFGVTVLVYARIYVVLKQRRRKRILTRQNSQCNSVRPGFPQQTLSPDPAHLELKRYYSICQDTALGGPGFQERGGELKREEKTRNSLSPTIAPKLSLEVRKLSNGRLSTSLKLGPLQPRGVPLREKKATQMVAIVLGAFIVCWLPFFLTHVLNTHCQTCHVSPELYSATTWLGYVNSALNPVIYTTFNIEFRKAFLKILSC
# Description: Binding affinity towards human Dopamine receptor D3
# Rattus norvegicus [8] = test: Inhibition of catalepsy in rat by subcutaneous administration of compound; assay type: functional; details: sc
# in vivo = details: sc
# Description: Therapeutic ratio by Subcutaneous dose of administration (quotient ED50 catalepsy/ED50 climbing)
# [9] = target: T4, Muscarinic acetylcholine receptor M1 (Homo sapiens, UniProt P11229); test: Inhibition of binding of 1.0 nM [3H]pirenzepine to cloned human Muscarinic acetylcholine receptor M1 expressed in membranes from CHO-K1 cells; assay type: cell-based
# T4 sequence (P11229 whole entry): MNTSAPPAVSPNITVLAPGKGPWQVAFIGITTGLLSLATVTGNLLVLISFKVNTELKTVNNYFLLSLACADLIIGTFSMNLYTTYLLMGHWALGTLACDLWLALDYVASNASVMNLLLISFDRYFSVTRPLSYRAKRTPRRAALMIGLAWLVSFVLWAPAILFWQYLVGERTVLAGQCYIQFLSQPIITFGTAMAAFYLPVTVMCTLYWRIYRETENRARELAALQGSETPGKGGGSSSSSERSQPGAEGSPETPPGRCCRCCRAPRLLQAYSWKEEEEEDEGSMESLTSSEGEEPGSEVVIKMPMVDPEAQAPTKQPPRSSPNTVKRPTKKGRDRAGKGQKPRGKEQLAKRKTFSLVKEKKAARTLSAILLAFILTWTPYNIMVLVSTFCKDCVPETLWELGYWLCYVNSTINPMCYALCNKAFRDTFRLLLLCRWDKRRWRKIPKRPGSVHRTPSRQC
# [10] = Delta ED50 value by peroral administration (ED50 catalepsy-ED50 Climbing); assay type: functional
# [11] = Therapeutic ratio by Peroral dose of administration (quotient ED50 catalepsy/ED50 climbing); assay type: ADME, organism-based; details: in vivo, po; read-out: Therapeutic ratio
# Rattus norvegicus [12] = test: Compound is measured for inhibition of catalepsy in rat by peroral administration of compound; assay type: functional; details: po
# Mus musculus [13] = test: Inhibition of apomorphine induced climbing affects in mice by administering the compound perorally in mice; assay type: functional
# Mus musculus [14] = test: Compound is measured for inhibition of apomorphine induced climbing affects in mice by administering the compound subcutaneously (sc) in mice; assay type: functional
# [15] = Antipsychotic activity was determined from subcutaneous administration of compound in mice (ED50 catalepsy-ED50 Climbing); assay type: functional
# Rattus norvegicus [16] = species on record: Rattus norvegicus; test: Ex vivo accumulation of L-DOPA was measured in striatum of rats
# [17] = target: T1, Adrenergic receptor alpha-1; test: In vitro binding affinity towards Alpha-1 adrenergic receptor by the displacement of [3H]prazosin radioligand in rat cortical homogenates
# Rattus norvegicus [18] = test: Compound is measured for inhibition of catalepsy in rats by subcutaneous administration of compound; assay type: functional; details: sc
# D(4) dopamine receptor [19] = target: T3, D(4) dopamine receptor; test: Compound was tested in vitro for its binding affinity towards human Dopamine receptor D4.2
# Rattus norvegicus [20] = test: Compound is measured for inhibition of catalepsy in rats by peroral administration of compound; assay type: functional; details: po
# [21] = Mus musculus, po, read-out: ED50
structure (smiles),measurement,setting,value
CN1CCN(C2=Nc3ccccc3Nc3ccc(OS(C)(=O)=O)cc32)CC1,IC50,[1],160 nM
same,IC50,D(1A) dopamine receptor,2100 nM
same,IC50,[2],1200 nM
same,logP,[3],1.8
CN1CCN(C2=Nc3ccccc3Nc3ccc(O)cc32)CC1,logP,[3],2.21
CN1CCN(C2=Nc3cc(OS(=O)(=O)C(F)(F)F)ccc3Nc3ccccc32)CC1,logP,[3],3.58
CN1CCN(C2=Nc3cc(Cl)ccc3Nc3ccc(OS(=O)(=O)C(F)(F)F)cc32)CC1,IC50,[4],23 nM
same,Delta ED50,[5],>41.8 mg/kg
same,IC50,D(4) dopamine receptor [6],490 nM
same,ED50,Mus musculus [7],8.2 mg/kg
same,IC50,D(3) dopamine receptor,52 nM
same,IC50,[1],7.1 nM
same,ED50,Rattus norvegicus [8],> 50 mg/kg
same,IC50,D(1A) dopamine receptor,200 nM
same,IC50,[2],13 nM
same,selectivity ratio,in vivo,> 6.1
same,logP,[3],4.3
same,IC50,[9],54 nM
CN1CCN(C2=Nc3cc(O)ccc3Nc3ccccc32)CC1,logP,[3],2.21
CN1CCN(C2=Nc3cc(OS(C)(=O)=O)ccc3Nc3ccccc32)CC1,IC50,[4],4900 nM
same,IC50,[1],8700 nM
same,IC50,D(1A) dopamine receptor,22000 nM
same,IC50,[2],7400 nM
same,logP,[3],1.8
same,IC50,[9],38 nM
CN1CCN(C2=Nc3ccccc3Nc3ccc(OS(=O)(=O)C(F)(F)F)cc32)CC1,IC50,[4],43 nM
same,Delta ED50,[5],>41.9 mg/kg
same,IC50,D(4) dopamine receptor [6],120 nM
same,ED50,Mus musculus [7],2.1 mg/kg
same,Delta ED50,[10],>89 mg/kg
same,IC50,D(3) dopamine receptor,53 nM
same,ED50,Rattus norvegicus [8],> 44 mg/kg
same,selectivity ratio,in vivo,> 20
same,selectivity ratio,[11],> 9
same,logP,[3],3.58
same,ED50,Rattus norvegicus [12],> 100 mg/kg
same,ED50,Mus musculus [13]; [21],11 mg/kg
same,IC50,[9],> 1000 nM
COc1ccc2c(c1)C(N1CCN(C)CC1)=Nc1ccccc1N2,logP,[3],2.71
COc1ccc2c(c1)N=C(N1CCN(C)CC1)c1ccccc1N2,logP,[3],2.71
CN1CCN(C2=Nc3ccccc3Sc3ccc(OS(=O)(=O)C(F)(F)F)cc32)CC1,IC50,[4],110 nM
same,Delta ED50,[5],27.4 mg/kg
same,IC50,D(4) dopamine receptor [6],570 nM
same,ED50,Mus musculus [7],2.6 mg/kg
same,IC50,D(3) dopamine receptor,8 nM
same,IC50,[1],3.6 nM
same,ED50,Rattus norvegicus [8],30 mg/kg
same,IC50,D(1A) dopamine receptor,100 nM
same,IC50,[2],280 nM
same,selectivity ratio,in vivo,11.5
same,logP,[3],4.04
same,IC50,[9],460 nM
CN1CCN(C2=Nc3ccccc3Sc3ccc(Cl)cc32)CC1 [CLOTHIAPINE],ED50,Rattus norvegicus [8],0.72 mg/kg
same,selectivity ratio,in vivo,2.7
same,ED50,Mus musculus [14],0.27 mg/kg
same,Delta ED50,[15],0.45 mg/kg
CN1CCN(C2=Nc3cc(Cl)ccc3Nc3ccccc32)CC1 [CLOZAPINE],ED50,Mus musculus [7],5.6 mg/kg
same,ED50,Rattus norvegicus [16],17 mg/kg
same,ED50,Rattus norvegicus [8],> 32.6 mg/kg
same,logP,[3],3.48
same,ED50,Rattus norvegicus [12],> 100 mg/kg
same,ED50,Mus musculus [13]; [21],17 mg/kg
O=C(CCCN1CCC(O)(c2ccc(Cl)cc2)CC1)c1ccc(F)cc1 [HALOPERIDOL],ED50,Mus musculus [7],0.1 mg/kg
same,ED50,Rattus norvegicus [16],0.1 mg/kg
same,ED50,Rattus norvegicus [8],0.25 mg/kg
same,logP,[3],3.98
same,ED50,Rattus norvegicus [12],1.5 mg/kg
CN1CCN(C2=Nc3ccccc3Nc3ccc(Cl)cc32)CC1 [ISOCLOZAPINE],Delta ED50,[5],0.3 mg/kg
same,IC50,D(4) dopamine receptor [6],110 nM
same,ED50,Mus musculus [7],1.7 mg/kg
same,IC50,D(3) dopamine receptor,120 nM
same,ED50,Rattus norvegicus [8],2 mg/kg
same,logP,[3],3.48
CN1CCN(C2=Nc3ccccc3Oc3ccc(Cl)cc32)CC1 [LOXAPINE],IC50,[17],18 nM
same,IC50,D(3) dopamine receptor,22 nM
same,ED50,Rattus norvegicus [18],0.35 mg/kg
same,IC50,D(4) dopamine receptor [19],14 nM
same,ED50,Rattus norvegicus [20],< 1 mg/kg
same,ED50,Mus musculus [13],0.04 mg/kg
same,ED50,Mus musculus [13]; [21],0.04 mg/kg
same,IC50,[9],5500 nM
